System: ARR6
Experiment: qRT-PCR of cytokinin responsive gene after BA pulse, fold change vs untreated wild type
Type: cell-based, Arabidopsis thaliana
Procedure: For quantitative real-time PCR (qRT-PCR) analysis of cytokinin-inducible gene expression, seeds were germinated on MS medium with 3% (w/v) sucrose and grown for 6 days. Cytokinin treatment was carried out by incubating seedlings in the same MS+sucrose liquid medium (no agar) supplemented with 0, 0.01, 0.1, 1 or 5 μM [solubilized in 0.1% dimethylsulfoxide (DMSO) and diluted with the MS medium] for 5 min, 15 min, 30 min or 1 h. The control seedlings were incubated with DMSO (0.1%, the concentration used to dissolve cytokinins for the treatment) for the corresponding durations and used for expression analysis. Before RNA preparation, WT, OE and AS seedlings were pooled and stored in RNAlater solution (Qiagen, Valencia, Calif.). Total RNA was extracted using the Rneasy Plant Mini Kit (Qiagen). SYBRgreen RT-PCR reagents (Applied Biosystems) were used to synthesize double-stranded cDNA. The number of transcripts present in biological replicates each of WT, OE and AS seedlings, with or without BA and DMSO, was determined from three independent replicates. Fold induction of the transcripts was calculated according to the manufacturer's instructions (ABI Prism 7700 Sequence Detection System, User Bulletin #2).

Q: Which ARR6 fold change (BA 0.01 μM, 5 min, AS1, ↑ up) does the source give for `c1ccc(CNc2ncnc3nc[nH]c23)cc1` [benzyladenine] here?
A: 4.12↑

Q: And the ARR6 fold change (BA 0.01 μM, 5 min, AS8, ↑ up)?
A: 7.1↑

Q: What about the ARR6 fold change (BA 0.01 μM, 5 min, AS21, ↑ up) of the same compound?
A: 9.2↑

Q: What about the ARR6 fold change (BA 0.01 μM, 5 min, OE1, ↓ down) of the same compound?
A: 5.51↓

Q: And the ARR6 fold change (BA 0.01 μM, 5 min, OE12, ↓ down)?
A: 6.87↓

Q: What about the ARR6 fold change (BA 0.01 μM, 5 min, OE18, ↓ down) of the same compound?
A: 8.56↓

Q: What about the ARR6 fold change (BA 0.01 μM, 5 min, Wild type, ↑ up) of the same compound?
A: 4.13↑

Q: And the ARR6 fold change (BA 0.01 μM, 15 min, AS1, ↑ up)?
A: 4.57↑

Q: And the ARR6 fold change (BA 0.01 μM, 15 min, AS8, ↑ up)?
A: 7.41↑

Q: What about the ARR6 fold change (BA 0.01 μM, 15 min, AS21, ↑ up) of the same compound?
A: 9.58↑

Q: And the ARR6 fold change (BA 0.01 μM, 15 min, OE1, ↓ down)?
A: 5.33↓

Q: What about the ARR6 fold change (BA 0.01 μM, 15 min, OE12, ↓ down) of the same compound?
A: 6.56↓

Q: And the ARR6 fold change (BA 0.01 μM, 15 min, OE18, ↓ down)?
A: 8.32↓

Q: And the ARR6 fold change (BA 0.01 μM, 15 min, Wild type, ↑ up)?
A: 4.67↑

Q: What about the ARR6 fold change (BA 0.01 μM, 30 min, AS1, ↑ up) of the same compound?
A: 5.98↑

Q: What about the ARR6 fold change (BA 0.01 μM, 30 min, AS8, ↑ up) of the same compound?
A: 7.86↑

Q: What about the ARR6 fold change (BA 0.01 μM, 30 min, AS21, ↑ up) of the same compound?
A: 9.79↑

Q: What about the ARR6 fold change (BA 0.01 μM, 30 min, OE1, ↓ down) of the same compound?
A: 5.11↓

Q: What about the ARR6 fold change (BA 0.01 μM, 30 min, OE12, ↓ down) of the same compound?
A: 6.13↓

Q: What about the ARR6 fold change (BA 0.01 μM, 30 min, OE18, ↓ down) of the same compound?
A: 8.13↓

Q: What about the ARR6 fold change (BA 0.01 μM, 30 min, Wild type, ↑ up) of the same compound?
A: 4.98↑

Q: And the ARR6 fold change (BA 0.01 μM, 1 h, AS1, ↑ up)?
A: 6.2↑

Q: What about the ARR6 fold change (BA 0.01 μM, 1 h, AS8, ↑ up) of the same compound?
A: 7.98↑

Q: What about the ARR6 fold change (BA 0.01 μM, 1 h, AS21, ↑ up) of the same compound?
A: 10.15↑

Q: What about the ARR6 fold change (BA 0.01 μM, 1 h, OE1, ↓ down) of the same compound?
A: 4.91↓

Q: And the ARR6 fold change (BA 0.01 μM, 1 h, OE12, ↓ down)?
A: 5.06↓

Q: What about the ARR6 fold change (BA 0.01 μM, 1 h, OE18, ↓ down) of the same compound?
A: 7.98↓

Q: And the ARR6 fold change (BA 0.01 μM, 1 h, Wild type, ↑ up)?
A: 5.15↑

Q: And the ARR6 fold change (BA 0.1 μM, 5 min, AS1, ↑ up)?
A: 6.14↑

Q: And the ARR6 fold change (BA 0.1 μM, 5 min, AS8, ↑ up)?
A: 8.12↑

Q: What about the ARR6 fold change (BA 0.1 μM, 5 min, AS21, ↑ up) of the same compound?
A: 10.31↑

Q: And the ARR6 fold change (BA 0.1 μM, 5 min, OE1, ↓ down)?
A: 5.1↓

Q: And the ARR6 fold change (BA 0.1 μM, 5 min, OE12, ↓ down)?
A: 5.91↓

Q: And the ARR6 fold change (BA 0.1 μM, 5 min, OE18, ↓ down)?
A: 7.89↓

Q: And the ARR6 fold change (BA 0.1 μM, 5 min, Wild type, ↑ up)?
A: 5.36↑

Q: And the ARR6 fold change (BA 0.1 μM, 15 min, AS1, ↑ up)?
A: 6.39↑

Q: And the ARR6 fold change (BA 0.1 μM, 15 min, AS8, ↑ up)?
A: 8.32↑

Q: What about the ARR6 fold change (BA 0.1 μM, 15 min, AS21, ↑ up) of the same compound?
A: 10.46↑

Q: And the ARR6 fold change (BA 0.1 μM, 15 min, OE1, ↓ down)?
A: 5.04↓

Q: And the ARR6 fold change (BA 0.1 μM, 15 min, OE12, ↓ down)?
A: 5.71↓

Q: And the ARR6 fold change (BA 0.1 μM, 15 min, OE18, ↓ down)?
A: 5.72↓

Q: And the ARR6 fold change (BA 0.1 μM, 15 min, Wild type, ↑ up)?
A: 5.58↑

Q: And the ARR6 fold change (BA 0.1 μM, 30 min, AS1, ↑ up)?
A: 6.69↑

Q: And the ARR6 fold change (BA 0.1 μM, 30 min, AS8, ↑ up)?
A: 8.57↑

Q: And the ARR6 fold change (BA 0.1 μM, 30 min, AS21, ↑ up)?
A: 10.68↑

Q: And the ARR6 fold change (BA 0.1 μM, 30 min, OE1, ↓ down)?
A: 4.9↓

Q: What about the ARR6 fold change (BA 0.1 μM, 30 min, OE12, ↓ down) of the same compound?
A: 5.59↓

Q: And the ARR6 fold change (BA 0.1 μM, 30 min, OE18, ↓ down)?
A: 5.36↓

Q: And the ARR6 fold change (BA 0.1 μM, 30 min, Wild type, ↑ up)?
A: 5.89↑

Q: And the ARR6 fold change (BA 0.1 μM, 1 h, AS1, ↑ up)?
A: 6.98↑

Q: What about the ARR6 fold change (BA 0.1 μM, 1 h, AS8, ↑ up) of the same compound?
A: 8.99↑

Q: And the ARR6 fold change (BA 0.1 μM, 1 h, AS21, ↑ up)?
A: 10.97↑

Q: And the ARR6 fold change (BA 0.1 μM, 1 h, OE1, ↓ down)?
A: 4.67↓

Q: What about the ARR6 fold change (BA 0.1 μM, 1 h, OE12, ↓ down) of the same compound?
A: 4.61↓

Q: What about the ARR6 fold change (BA 0.1 μM, 1 h, OE18, ↓ down) of the same compound?
A: 5.01↓

Q: And the ARR6 fold change (BA 0.1 μM, 1 h, Wild type, ↑ up)?
A: 5.99↑

Q: What about the ARR6 fold change (BA 1.0 μM, 5 min, AS1, ↑ up) of the same compound?
A: 7.43↑

Q: What about the ARR6 fold change (BA 1.0 μM, 5 min, AS8, ↑ up) of the same compound?
A: 9.01↑

Q: And the ARR6 fold change (BA 1.0 μM, 5 min, AS21, ↑ up)?
A: 10.99↑

Q: And the ARR6 fold change (BA 1.0 μM, 5 min, OE1, ↓ down)?
A: 4.96↓

Q: And the ARR6 fold change (BA 1.0 μM, 5 min, OE12, ↓ down)?
A: 5.19↓

Q: And the ARR6 fold change (BA 1.0 μM, 5 min, OE18, ↓ down)?
A: 4.36↓

Q: What about the ARR6 fold change (BA 1.0 μM, 5 min, Wild type, ↑ up) of the same compound?
A: 6.1↑

Q: What about the ARR6 fold change (BA 1.0 μM, 15 min, AS1, ↑ up) of the same compound?
A: 7.68↑

Q: And the ARR6 fold change (BA 1.0 μM, 15 min, AS8, ↑ up)?
A: 9.43↑

Q: And the ARR6 fold change (BA 1.0 μM, 15 min, AS21, ↑ up)?
A: 11.12↑

Q: And the ARR6 fold change (BA 1.0 μM, 15 min, OE1, ↓ down)?
A: 4.71↓

Q: What about the ARR6 fold change (BA 1.0 μM, 15 min, OE12, ↓ down) of the same compound?
A: 5.01↓

Q: And the ARR6 fold change (BA 1.0 μM, 15 min, OE18, ↓ down)?
A: 4.21↓

Q: And the ARR6 fold change (BA 1.0 μM, 15 min, Wild type, ↑ up)?
A: 6.31↑

Q: What about the ARR6 fold change (BA 1.0 μM, 30 min, AS1, ↑ up) of the same compound?
A: 7.73↑

Q: What about the ARR6 fold change (BA 1.0 μM, 30 min, AS8, ↑ up) of the same compound?
A: 9.69↑

Q: What about the ARR6 fold change (BA 1.0 μM, 30 min, AS21, ↑ up) of the same compound?
A: 11.35↑

Q: And the ARR6 fold change (BA 1.0 μM, 30 min, OE1, ↓ down)?
A: 4.49↓

Q: And the ARR6 fold change (BA 1.0 μM, 30 min, OE12, ↓ down)?
A: 4.89↓

Q: What about the ARR6 fold change (BA 1.0 μM, 30 min, OE18, ↓ down) of the same compound?
A: 4.01↓

Q: What about the ARR6 fold change (BA 1.0 μM, 30 min, Wild type, ↑ up) of the same compound?
A: 6.59↑

Q: What about the ARR6 fold change (BA 1.0 μM, 1 h, AS1, ↑ up) of the same compound?
A: 8.01↑

Q: What about the ARR6 fold change (BA 1.0 μM, 1 h, AS8, ↑ up) of the same compound?
A: 9.93↑

Q: What about the ARR6 fold change (BA 1.0 μM, 1 h, AS21, ↑ up) of the same compound?
A: 11.76↑

Q: What about the ARR6 fold change (BA 1.0 μM, 1 h, OE1, ↓ down) of the same compound?
A: 3.21↓

Q: What about the ARR6 fold change (BA 1.0 μM, 1 h, OE12, ↓ down) of the same compound?
A: 3.56↓

Q: And the ARR6 fold change (BA 1.0 μM, 1 h, OE18, ↓ down)?
A: 3.01↓

Q: What about the ARR6 fold change (BA 1.0 μM, 1 h, Wild type, ↑ up) of the same compound?
A: 6.87↑

Q: And the ARR6 fold change (BA 5.0 μM, 5 min, AS1, ↑ up)?
A: 7.98↑

Q: And the ARR6 fold change (BA 5.0 μM, 5 min, AS8, ↑ up)?
A: 9.98↑

Q: And the ARR6 fold change (BA 5.0 μM, 5 min, AS21, ↑ up)?
A: 11.43↑

Q: And the ARR6 fold change (BA 5.0 μM, 5 min, OE1, ↓ down)?
A: 4.19↓

Q: And the ARR6 fold change (BA 5.0 μM, 5 min, OE12, ↓ down)?
A: 4.67↓

Q: And the ARR6 fold change (BA 5.0 μM, 5 min, OE18, ↓ down)?
A: 3.45↓

Q: What about the ARR6 fold change (BA 5.0 μM, 5 min, Wild type, ↑ up) of the same compound?
A: 7.52↑

Q: And the ARR6 fold change (BA 5.0 μM, 15 min, AS1, ↑ up)?
A: 8.01↑

Q: And the ARR6 fold change (BA 5.0 μM, 15 min, AS8, ↑ up)?
A: 10.07↑

Q: And the ARR6 fold change (BA 5.0 μM, 15 min, AS21, ↑ up)?
A: 11.56↑

Q: What about the ARR6 fold change (BA 5.0 μM, 15 min, OE1, ↓ down) of the same compound?
A: 4.01↓

Q: And the ARR6 fold change (BA 5.0 μM, 15 min, OE12, ↓ down)?
A: 4.62↓

Q: And the ARR6 fold change (BA 5.0 μM, 15 min, OE18, ↓ down)?
A: 3.18↓

Q: What about the ARR6 fold change (BA 5.0 μM, 15 min, Wild type, ↑ up) of the same compound?
A: 7.69↑

Q: And the ARR6 fold change (BA 5.0 μM, 30 min, AS1, ↑ up)?
A: 8.23↑

Q: And the ARR6 fold change (BA 5.0 μM, 30 min, Wild type, ↑ up)?
A: 7.89↑

Reference: patent US9290777B2, “Putative cytokinin receptor and methods for use thereof” (NATIONAL UNIVERSITY OF SINGAPORE, priority 2007, dated 2016)
